Data published in ChEMBL document CHEMBL5506059, “Cyanomethylquinolones as a New Class of Potential Multitargeting Broad-Spectrum Antibacterial Agents” (J Med Chem, 2024).
Converted amounts (≈) assume the structure as drawn. The source made the active and inactive calls. The rule behind the calls is not given here.

What was measured:
Enterococcus faecalis [1] = test: Potency index, ratio of norfloxacin MIC to test compound MIC for antibacterial activity against vancomycin-resistant Enterococcus faecalis clinical isolate p1-2007225053 assessed as inhibition of bacterial growth incubated for 24 hrs; assay type: functional
Staphylococcus aureus [2] = test: Antibacterial activity against Staphylococcus aureus clinical isolate assessed as inhibition of bacterial growth incubated for 24 hrs; assay type: functional
Pseudomonas aeruginosa [3] = test: Antibacterial activity against Pseudomonas aeruginosa assessed as reduction in metabolic activity by measuring reduction in fluorescence intensity at 0.5 to 2 times MIC incubated for 6 hrs by alamar blue assay; assay type: functional, organism-based
Staphylococcus aureus [4] = test: Antibacterial activity against Staphylococcus aureus ATCC 6538 assessed as inhibition of bacterial growth incubated for 24 hrs; assay type: functional
Pseudomonas aeruginosa [5] = test: Antibacterial activity against Pseudomonas aeruginosa ATCC 27853 assessed as inhibition of bacterial growth incubated for 24 hrs; assay type: functional
Cell membrane [6] = test: Induction of cell membrane permeability in methicillin-resistant Staphylococcus aureus assessed as increase in fluorescence intensity at 1 to 2 ug/ml incubated for 6 hrs by PI staining based fluorescence analysis; assay type: cell membranes; conditions: dose 1-2 µg/ml
[7] = Hemolytic activity in human Red blood cells at 256 ug/ml measured after 1.5 hrs by absorbance based assay relative to control; assay type: toxicity, cell-based, Erythrocyte; conditions: red blood cells (erythrocytes), at 256 µg/mL, read-out: Activity
Enterococcus faecalis [8] = test: Antibacterial activity against vancomycin-resistant Enterococcus faecalis clinical isolate p1-2007225053 assessed as inhibition of bacterial growth incubated for 24 hrs; assay type: functional
Cell membrane [9] = test: Induction of cell membrane depolarization in methicillin-resistant Staphylococcus aureus assessed as increase in fluorescence intensity at 1 ug/ml measured for 30 mins by DiSC35 dye based fluorescence analysis; assay type: cell membranes; conditions: dose 1.0 µg/ml
Staphylococcus aureus [10] = test: Antibacterial activity against ciprofloxacin-treated Staphylococcus aureus ATCC 6538 assessed as inhibition of bacterial growth measured after 24 hrs; assay type: functional
Pseudomonas aeruginosa [11] = test: Antibacterial activity against ciprofloxacin-treated Pseudomonas aeruginosa ATCC 27853 assessed as inhibition of bacterial growth measured after 24 hrs; assay type: functional
Staphylococcus aureus [12] = test: Antibacterial activity against methicillin resistant Staphylococcus aureus assessed as reduction in metabolic activity by measuring reduction in fluorescence intensity at 0.5 to 2 times MIC incubated for 6 hrs by alamar blue assay; assay type: functional, organism-based
Pseudomonas aeruginosa [13] = test: Antibiofilm activity in Pseudomonas aeruginosa assessed as biofilm eradication measured after 24 hrs by crystal violet staining based analysis; assay type: functional, organism-based; conditions: dose 1-2 µg/ml
Enterococcus faecalis [14] = test: Antibacterial activity against Enterococcus faecalis clinical isolate assessed as inhibition of bacterial growth incubated for 24 hrs; assay type: functional
[15] = Cytotoxicity against human FHC assessed as inhibition of cell growth measured after 24 hrs by MTT assay; assay type: toxicity, cell-based; conditions: FHC cells
Cell membrane [16] = test: Induction of cell membrane damage in methicillin-resistant Staphylococcus aureus assessed as increase in nucleic acid leakage at 0 to 2 ug/ml incubated for 12 hrs by optical density based microplate reader analysis; assay type: cell membranes; conditions: dose 0-2 µg/ml
Staphylococcus aureus [17] = test: Antibacterial activity against Staphylococcus aureus ATCC 25923 assessed as inhibition of bacterial growth incubated for 24 hrs; assay type: functional
Staphylococcus aureus [18] = test: Antibiofilm activity in methicillin resistant Staphylococcus aureus assessed as biofilm eradication measured after 24 hrs by crystal violet staining based analysis; assay type: functional, organism-based; conditions: dose 1-2 µg/ml
Acinetobacter baumannii = test: Antibacterial activity against Acinetobacter baumannii clinical isolate assessed as inhibition of bacterial growth incubated for 24 hrs; assay type: functional
Streptococcus pneumoniae = test: Antibacterial activity against Streptococcus pneumoniae ATCC 6305 assessed as inhibition of bacterial growth incubated for 24 hrs; assay type: functional
Enterococcus faecalis [19] = test: Potency index, ratio of ciprofloxacin MIC to test compound MIC for antibacterial activity against vancomycin-resistant Enterococcus faecalis clinical isolate p1-2007225053 assessed as inhibition of bacterial growth incubated for 24 hrs; assay type: functional
Pseudomonas aeruginosa [20] = test: Induction of intracellular ROS generation in Pseudomonas aeruginosa assessed as increase in fluorescence intensity at 2 ug/ml incubated for 6 hrs in presence of N-acetyl-L-cysteine by DCFH-DA dye based fluorescence analysis; assay type: functional, organism-based; conditions: dose 2.0 µg/ml
Staphylococcus aureus [21] = test: Resistance development in methicillin resistant Staphylococcus aureus assessed as increase in MIC measured after 20 days; assay type: functional, organism-based; conditions: time 20.0 day
Staphylococcus aureus [22] = test: Antibacterial activity against Staphylococcus aureus CMCC(B)26003 assessed as inhibition of bacterial growth incubated for 24 hrs; assay type: functional
Streptococcus pyogenes = test: Antibacterial activity against Streptococcus pyogenes ATCC 19615 assessed as inhibition of bacterial growth incubated for 24 hrs; assay type: functional
Pseudomonas aeruginosa [23] = test: Resistance development in Pseudomonas aeruginosa assessed as increase in MIC measured after 20 days; assay type: functional, organism-based; conditions: time 20.0 day
Enterococcus faecalis [24] = test: Antibacterial activity against vancomycin-resistant Enterococcus faecalis clinical isolate p1-2007226001 assessed as inhibition of bacterial growth incubated for 24 hrs; assay type: functional
Escherichia coli [25] = test: Antibacterial activity against Escherichia coli ATCC 25922 assessed as inhibition of bacterial growth incubated for 24 hrs; assay type: functional
HUVEC = test: Cytotoxicity against HUVEC cells assessed as reduction in cell viability at 0.78 to 25 ug/ml measured after 24 hrs by MTT assay; assay type: toxicity, cell-based; conditions: human, dose 0.78-25 µg/ml
[26] = test system: Staphylococcus epidermidis; test: Antibacterial activity against Staphylococcus epidermidis ATCC 12228 assessed as inhibition of bacterial growth incubated for 24 hrs; assay type: functional
Staphylococcus aureus [27] = test: Antibacterial activity against Staphylococcus aureus ATCC 12600 assessed as inhibition of bacterial growth incubated for 24 hrs; assay type: functional
Staphylococcus aureus [28] = test: Antibacterial activity against methicillin resistant Staphylococcus aureus clinical isolate assessed as inhibition of bacterial growth at 1 times MIC incubated under dark condition and measured upto 5 hrs relative to control; assay type: functional
Staphylococcus aureus [29] = test: Antibacterial activity against Staphylococcus aureus ATCC 29213 assessed as inhibition of bacterial growth incubated for 24 hrs; assay type: functional
Escherichia coli [30] = test: Antibacterial activity against Escherichia coli clinical isolate assessed as inhibition of bacterial growth incubated for 24 hrs; assay type: functional
Enterococcus faecium = test: Antibacterial activity against Enterococcus faecium ATCC 19434 assessed as inhibition of bacterial growth incubated for 24 hrs; assay type: functional
[31] = Cytotoxicity against HUVEC cells assessed as cell viability at 25 ug/ml measured after 24 hrs by MTT assay relative to control; assay type: toxicity, cell-based; conditions: human, at 25 µg/mL, read-out: Activity
Cell membrane [32] = test: Induction of cell membrane damage in Pseudomonas aeruginosa assessed as increase in nucleic acid leakage at 0 to 2 ug/ml incubated for 12 hrs by optical density based microplate reader analysis; assay type: cell membranes; conditions: dose 0-2 µg/ml
[33] = Cytotoxicity against human normal Squamous epithelial cell (NOK) assessed as inhibition of cell growth measured after 24 hrs by MTT assay; assay type: toxicity, cell-based; conditions: normal squamous epithelial cells (NOK)
Cell membrane [34] = test: Induction of cell membrane depolarization in Pseudomonas aeruginosa assessed as increase in fluorescence intensity at 1 ug/ml measured for 30 mins by DiSC35 dye based fluorescence analysis; assay type: cell membranes; conditions: dose 1.0 µg/ml
Pseudomonas aeruginosa [35] = test: Antibacterial activity against Pseudomonas aeruginosa clinical isolate assessed as inhibition of bacterial growth incubated for 24 hrs; assay type: functional
Staphylococcus aureus [36] = test: Antibacterial activity against methicillin resistant Staphylococcus aureus clinical isolate assessed as inhibition of bacterial growth incubated for 24 hrs; assay type: functional
Staphylococcus aureus [37] = test: Antibacterial activity against methicillin-resistant Staphylococcus aureus ATCC 43300 assessed as inhibition of bacterial growth incubated for 24 hrs; assay type: functional
Staphylococcus aureus [38] = test: Antibacterial activity against Staphylococcus aureus CMCC(B)26001 assessed as inhibition of bacterial growth incubated for 24 hrs; assay type: functional
Pseudomonas aeruginosa [39] = test: Induction of intracellular ROS generation in Pseudomonas aeruginosa assessed as increase in fluorescence intensity at 2 ug/ml incubated for 6 hrs by DCFH-DA dye based fluorescence analysis; assay type: functional, organism-based; conditions: dose 2.0 µg/ml
L02 = test: Cytotoxicity against human L02 cells assessed as reduction in cell viability at 0.78 to 25 ug/ml measured after 24 hrs by MTT assay; assay type: toxicity, cell-based; conditions: l02, 24 h, dose 0.78-25 µg/ml
Erythrocyte = test: Hemolytic activity in human Red blood cells assessed as concentration required for 5% hemolysis measured after 1.5 hrs by absorbance based assay; assay type: toxicity, cell-based
Cell membrane [40] = test: Induction of cell membrane permeability in Pseudomonas aeruginosa assessed as increase in fluorescence intensity at 1 to 2 ug/ml incubated for 6 hrs by PI staining based fluorescence analysis; assay type: cell membranes; conditions: dose 1-2 µg/ml
Klebsiella pneumoniae = test: Antibacterial activity against Klebsiella pneumoniae clinical isolate assessed as inhibition of bacterial growth incubated for 24 hrs; assay type: functional
Staphylococcus aureus [41] = test: Resistance development in methicillin resistant Staphylococcus aureus assessed as fold increase in MIC measured after 20 days relative to control; assay type: functional; conditions: time 20 day
Pseudomonas aeruginosa [42] = test: Resistance development in Pseudomonas aeruginosa assessed as fold increase in MIC measured after 20 days relative to control; assay type: functional; conditions: time 20 day

C[C@H]1COc2c(CC#N)c(F)cc3c(=O)c(C(=O)O)cn1c23
Ratio (Enterococcus faecalis [1]): 8 | MIC (Staphylococcus aureus [2]): 0.25 µg/mL (≈ 0.827 µM) | Activity (Pseudomonas aeruginosa [3]): Active | MIC (Staphylococcus aureus [4]): 0.25 µg/mL (≈ 0.827 µM) | MIC (Pseudomonas aeruginosa [5]): 0.25 µg/mL (≈ 0.827 µM) | Activity (Cell membrane [6]): Active | hemolysis at 1.5 h, 256 ug/ml [7]: < 1% | MIC (Enterococcus faecalis [8]): 0.125 µg/mL (≈ 0.414 µM) | Activity (Cell membrane [9]): Active | MIC (Staphylococcus aureus [10]): 2 µg/mL (≈ 6.62 µM) | MIC (Pseudomonas aeruginosa [11]): 2 µg/mL (≈ 6.62 µM) | Activity (Staphylococcus aureus [12]): Active | Activity (Pseudomonas aeruginosa [13]): Dose-Dependent Effect | MIC (Enterococcus faecalis [14]): 2 µg/mL (≈ 6.62 µM) | IC50 at 24 h [15]: 21 µg/mL (≈ 69.5 µM) | Activity (Cell membrane [16]): Active | MIC (Staphylococcus aureus [17]): 0.25 µg/mL (≈ 0.827 µM) | Activity (Staphylococcus aureus [18]): Dose-Dependent Effect | MIC (Acinetobacter baumannii): 0.25 µg/mL (≈ 0.827 µM) | MIC (Streptococcus pneumoniae): 0.5 µg/mL (≈ 1.65 µM) | Ratio (Enterococcus faecalis [19]): 2 | Activity (Pseudomonas aeruginosa [20]): inactive | Activity (Staphylococcus aureus [21]): inactive | MIC (Staphylococcus aureus [22]): 0.125 µg/mL (≈ 0.414 µM) | MIC (Streptococcus pyogenes): 2 µg/mL (≈ 6.62 µM) | Activity (Pseudomonas aeruginosa [23]): inactive | MIC (Enterococcus faecalis [24]): 0.5 µg/mL (≈ 1.65 µM) | MIC (Escherichia coli [25]): 0.25 µg/mL (≈ 0.827 µM) | Activity (HUVEC): Non-Toxic | MIC [26]: 0.25 µg/mL (≈ 0.827 µM) | MIC (Staphylococcus aureus [27]): 0.25 µg/mL (≈ 0.827 µM) | inhibition (INH) (Staphylococcus aureus [28]): ~100% | MIC (Staphylococcus aureus [29]): 0.5 µg/mL (≈ 1.65 µM) | MIC (Escherichia coli [30]): 1 µg/mL (≈ 3.31 µM) | MIC (Enterococcus faecium): 0.5 µg/mL (≈ 1.65 µM) | viability at 24 h, 25 ug/ml [31]: > 90% | Activity (Cell membrane [32]): Active | IC50 at 24 h [33]: 54 µg/mL (≈ 179 µM) | Activity (Cell membrane [34]): Active | MIC (Pseudomonas aeruginosa [35]): 0.25 µg/mL (≈ 0.827 µM) | MIC (Staphylococcus aureus [36]): 0.5 µg/mL (≈ 1.65 µM) | MIC (Staphylococcus aureus [37]): 0.125 µg/mL (≈ 0.414 µM) | MIC (Staphylococcus aureus [38]): 0.125 µg/mL (≈ 0.414 µM) | Activity (Pseudomonas aeruginosa [39]): Active | Activity (L02): Non-Toxic | HC5 (Erythrocyte): > 10000 µg/mL | Activity (Cell membrane [40]): Active | MIC (Klebsiella pneumoniae): 1 µg/mL (≈ 3.31 µM)

NC1CCN(c2c(F)cc3c(=O)c(C(=O)O)cn(C4CC4)c3c2Cl)C1 (stereo unspecified) [CLINAFLOXACIN]
MIC (Staphylococcus aureus [2]): 0.5 µg/mL (≈ 1.37 µM) | MIC (Pseudomonas aeruginosa [5]): 0.5 µg/mL (≈ 1.37 µM) | fold change (FC) (Staphylococcus aureus [41]): 8 | MIC (Enterococcus faecalis [14]): 4 µg/mL (≈ 10.9 µM) | MIC (Staphylococcus aureus [17]): 0.5 µg/mL (≈ 1.37 µM) | MIC (Acinetobacter baumannii): 0.5 µg/mL (≈ 1.37 µM) | MIC (Escherichia coli [25]): 0.25 µg/mL (≈ 0.683 µM) | MIC (Staphylococcus aureus [29]): 0.5 µg/mL (≈ 1.37 µM) | MIC (Escherichia coli [30]): 0.25 µg/mL (≈ 0.683 µM) | MIC (Pseudomonas aeruginosa [35]): 0.5 µg/mL (≈ 1.37 µM) | MIC (Staphylococcus aureus [36]): 1 µg/mL (≈ 2.73 µM) | fold change (FC) (Pseudomonas aeruginosa [42]): 16 | MIC (Klebsiella pneumoniae): 0.5 µg/mL (≈ 1.37 µM)
